The numbers were not newly measured in patent US8475839B2 (Novartis AG, priority 2006, dated 2013), which cites them from elsewhere.

Each structure is given as a SMILES string.

Assay in data set [1]: not given
The source holds these as a separate data set.

As for `CCOC(=O)C1=C(COCCN)NC(C)=C(C(=O)OC)C1c1ccccc1Cl` (centres unmarked) [Amlodipine besylate, 3-ethyl-5-methyl-2(2-aminoethoxymethyl)-4-(2-chlrorophenyl)-1,4-dihydro-6-methyl-3,5-pyridinedicarboxylate benzenesulphonate], the absolute oral bioavailability is reported as 64-90%. Moreover, in data set [1], the solubility in water result was “slightly soluble”.

As to `NS(=O)(=O)c1cc2c(cc1Cl)NCNS2(=O)=O` [Hydrochlorothiazide], the absolute oral bioavailability is reported as 60-80%.

Consider `CCCCC(=O)N(Cc1ccc(-c2ccccc2-c2nnn[nH]2)cc1)[C@H](C(=O)O)C(C)C` [valsartan, (S)-N-valeryl-N-{[2′-(1H-tetrazole-5-yl)-biphenyl-4-yl]-methyl}-valine], for which the absolute oral bioavailability result was “about 25%”. Also, the “absolute oral bioavailability, wide range” value (range around the about 25% value) was 10-35%.
